# In US20260242419A1, “A CYCLIC PEPTIDE FOR TRAPPING INTERLEUKIN-1 BETA” (Merck Sharp & Dohme LLC, priority 2023, published 2026):
# Starred links: 1 amine or outer side, 2 acyl side, 3 side chain; linkers in the order of their positions; H or OH if unused. Non-standard residues stand in square brackets, D forms with d. Residues, ends and D or L forms follow the SMILES beside them. Phe(4-(5-CO2H-2-pyrimidyl)) = N[C@@H](Cc1ccc(-c2ncc(C(=O)O)cn2)cc1)C(=O)O; Phe(4-(4-Ac-piperazinyl)) = CC(=O)N1CCN(c2ccc(C[C@H](N)C(=O)O)cc2)CC1; dPro(4R-(4-pyridylmethyl)) = O=C(O)[C@H]1C[C@@H](Cc2ccncc2)CN1; Ala(piperidin-4-yl) = O=C([C@H](CC1CCN([*:3])CC1)N[*:1])[*:2]; Trp(βS-Me,4-F) = C[C@@H](c1c[nH]c2cccc(F)c12)[C@H](N)C(=O)O; Bip(4'-COOH) = N[C@@H](Cc1ccc(-c2ccc(C(=O)O)cc2)cc1)C(=O)O; Ala(1-bicyclo(1.1.1)pentyl) = N[C@@H](CC12CC(C1)C2)C(=O)O; dPro(4R-Bzl(4-F)) = O=C(O)[C@H]1C[C@@H](Cc2ccc(F)cc2)CN1; Ala(morpholin-4-yl) = N[C@@H](CN1CCOCC1)C(=O)O; Ala(pyrimidin-5-yl) = N[C@@H](Cc1cncnc1)C(=O)O; Phe(4-COOH) = N[C@@H](Cc1ccc(C(=O)O)cc1)C(=O)O; Pro(cis-4-F) = O=C(O)[C@@H]1C[C@H](F)CN1; Ala(4-THP) = N[C@@H](CC1CCOCC1)C(=O)O; cisHyp = O=C(O)[C@@H]1C[C@H](O)CN1; d(αMeD) = C[C@@](N)(CC(=O)O)C(=O)O; 4Pal = N[C@@H](Cc1ccncc1)C(=O)O; aThr = C[C@H](O)[C@H](N)C(=O)O; αMeD = C[C@](N)(CC(=O)O)C(=O)O; d(αMeS) = C[C@@](N)(CO)C(=O)O; Dab = NCC[C@H](N)C(=O)O; Aib = CC(C)(N)C(=O)O
# Biological target: T1, IL-1β (Homo sapiens, UniProt P01584)
# T1 construct: purchased BioLegend 579404
# T1 sequence (P01584 117-269): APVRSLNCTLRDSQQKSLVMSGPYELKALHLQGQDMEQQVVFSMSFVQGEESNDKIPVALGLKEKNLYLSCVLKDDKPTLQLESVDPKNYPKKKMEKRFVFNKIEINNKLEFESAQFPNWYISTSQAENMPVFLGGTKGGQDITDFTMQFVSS
# Experiment: IL-6 assay in MRC5 cells: inhibition of IL-1β induced IL-6 secretion (AlphaLISA)
# Type: cell-based
# Settings: inhibition of IL-1β induced IL-6 secretion in MRC5 cells; read-out: MRC5 IC50
# Procedure, shortened: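 Compound was pre-incubated 1 h at ambient temperature with recombinant human IL-1β at 2λ EC80 before adding human lung fibroblast MRC5 cells (3000/well) in EMEM with 0.025% BSA. After overnight culture at 37 °C, 5% CO2, secreted IL-6 in conditioned medium was measured by AlphaLISA; IC50 from 4-parameter logistic fits.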
row,IC50 [pM],SMILES
1,41,"C[C@@H](c1c[nH]c2cccc(F)c12)[C@@H]1NC(=O)[C@@H]2C[C@H](F)CN2C(=O)CNC(=O)[C@H](Cc2ccc(C(=O)O)cc2)NC(=O)[C@H](CC23CC(C2)C3)NC(=O)[C@H](Cc2ccc(-c3ccc(C(=O)O)cc3)cc2)NC(=O)[C@H]2C[C@@H](Cc3ccncc3)CN2C(=O)CNC(=O)[C@H](CO)NC(=O)[C@H](CCC(N)=O)NC(=O)[C@H](CC2CCNCC2)NC(=O)[C@@](C)(CO)NC(=O)[C@H](Cc2c[nH]c3ccccc23)NC(=O)[C@H](CCC(=O)O)NC(=O)C(C)(C)NC1=O [Example 178] (cyclo([Bip(4'-COOH)][Ala(1-bicyclo(1.1.1)pentyl)][Phe(4-COOH)]G[Pro(cis-4-F)][Trp(βS-Me,4-F)][Aib]EW[d(αMeS)][Ala(piperidin-4-yl)]QSG[dPro(4R-(4-pyridylmethyl))]))"
2,29,"C[C@@H](c1c[nH]c2cccc(F)c12)[C@@H]1NC(=O)[C@@H]2C[C@H](F)CN2C(=O)CNC(=O)[C@H](Cc2ccc(C(=O)O)cc2)NC(=O)[C@H](CC23CC(C2)C3)NC(=O)[C@H](Cc2ccc(-c3ccc(C(=O)O)cc3)cc2)NC(=O)[C@H]2C[C@@H](Cc3ccncc3)CN2C(=O)CNC(=O)[C@H](CO)NC(=O)[C@H](CCC(N)=O)NC(=O)[C@H](CN2CCOCC2)NC(=O)C(C)(C)NC(=O)[C@H](Cc2c[nH]c3ccccc23)NC(=O)[C@H](CO)NC(=O)C(C)(C)NC1=O [Example 179] (cyclo([Bip(4'-COOH)][Ala(1-bicyclo(1.1.1)pentyl)][Phe(4-COOH)]G[Pro(cis-4-F)][Trp(βS-Me,4-F)][Aib]SW[Aib][Ala(morpholin-4-yl)]QSG[dPro(4R-(4-pyridylmethyl))]))"
3,27,"C[C@@H](c1c[nH]c2cccc(F)c12)[C@@H]1NC(=O)[C@@H]2C[C@H](F)CN2C(=O)CNC(=O)[C@H](Cc2ccc(C(=O)O)cc2)NC(=O)[C@H](CC23CC(C2)C3)NC(=O)[C@H](Cc2ccc(-c3ccc(C(=O)O)cc3)cc2)NC(=O)[C@H]2C[C@@H](Cc3ccncc3)CN2C(=O)CNC(=O)[C@H](CO)NC(=O)[C@H](CCC(N)=O)NC(=O)[C@H](CC2CCNCC2)NC(=O)C(C)(C)NC(=O)[C@H](Cc2c[nH]c3ccccc23)NC(=O)[C@H](CO)NC(=O)C(C)(C)NC1=O [Example 180] (cyclo([Bip(4'-COOH)][Ala(1-bicyclo(1.1.1)pentyl)][Phe(4-COOH)]G[Pro(cis-4-F)][Trp(βS-Me,4-F)][Aib]SW[Aib][Ala(piperidin-4-yl)]QSG[dPro(4R-(4-pyridylmethyl))]))"
4,21,"C[C@@H](c1c[nH]c2cccc(F)c12)[C@@H]1NC(=O)[C@@H]2C[C@H](F)CN2C(=O)CNC(=O)[C@H](Cc2ccc(C(=O)O)cc2)NC(=O)[C@H](CC23CC(C2)C3)NC(=O)[C@H](Cc2ccc(-c3ccc(C(=O)O)cc3)cc2)NC(=O)[C@H]2C[C@@H](Cc3ccncc3)CN2C(=O)CNC(=O)[C@H](CO)NC(=O)[C@H](CCC(N)=O)NC(=O)[C@H](CC2CCNCC2)NC(=O)[C@@](C)(CO)NC(=O)[C@H](Cc2c[nH]c3ccccc23)NC(=O)[C@H](CO)NC(=O)C(C)(C)NC1=O [Example 181] (cyclo([Bip(4'-COOH)][Ala(1-bicyclo(1.1.1)pentyl)][Phe(4-COOH)]G[Pro(cis-4-F)][Trp(βS-Me,4-F)][Aib]SW[d(αMeS)][Ala(piperidin-4-yl)]QSG[dPro(4R-(4-pyridylmethyl))]))"
5,49,"C[C@H](O)[C@@H]1NC(=O)C(C)(C)NC(=O)[C@H]([C@@H](C)c2c[nH]c3cccc(F)c23)NC(=O)[C@@H]2C[C@H](O)CN2C(=O)CNC(=O)[C@H](Cc2ccc(C(=O)O)cc2)NC(=O)[C@H](CC23CC(C2)C3)NC(=O)[C@H](Cc2ccc(-c3ccc(C(=O)O)cc3)cc2)NC(=O)[C@H]2C[C@@H](Cc3ccncc3)CN2C(=O)CNC(=O)[C@H](CCN)NC(=O)[C@H](CCC(N)=O)NC(=O)[C@H](Cc2cncnc2)NC(=O)[C@@](C)(CC(=O)O)NC(=O)[C@H](Cc2c[nH]c3ccccc23)NC1=O [Example 182] (cyclo([Bip(4'-COOH)][Ala(1-bicyclo(1.1.1)pentyl)][Phe(4-COOH)]G[cisHyp][Trp(βS-Me,4-F)][Aib][aThr]W[d(αMeD)][Ala(pyrimidin-5-yl)]Q[Dab]G[dPro(4R-(4-pyridylmethyl))]))"
6,25,"CC(=O)N1CCN(c2ccc(C[C@@H]3NC(=O)[C@H]4C[C@@H](Cc5ccc(F)cc5)CN4C(=O)CNC(=O)[C@H](CCN)NC(=O)[C@H](CCC(N)=O)NC(=O)[C@H](Cc4cncnc4)NC(=O)C(C)(C)NC(=O)[C@H](Cc4c[nH]c5ccccc45)NC(=O)[C@H](CO)NC(=O)C(C)(C)NC(=O)[C@H]([C@@H](C)c4c[nH]c5cccc(F)c45)NC(=O)[C@@H]4C[C@H](F)CN4C(=O)CNC(=O)[C@H](Cc4ccc(C(=O)O)cc4)NC(=O)[C@H](Cc4ccncc4)NC3=O)cc2)CC1 [Example 183] (cyclo([Phe(4-(4-Ac-piperazinyl))][4Pal][Phe(4-COOH)]G[Pro(cis-4-F)][Trp(βS-Me,4-F)][Aib]SW[Aib][Ala(pyrimidin-5-yl)]Q[Dab]G[dPro(4R-Bzl(4-F))]))"
7,14,"CC(=O)N1CCN(c2ccc(C[C@@H]3NC(=O)[C@H]4C[C@@H](Cc5ccc(F)cc5)CN4C(=O)CNC(=O)[C@H](CCN)NC(=O)[C@H](CCC(N)=O)NC(=O)[C@H](Cc4cncnc4)NC(=O)[C@](C)(CC(=O)O)NC(=O)[C@H](Cc4c[nH]c5ccccc45)NC(=O)[C@H](CO)NC(=O)C(C)(C)NC(=O)[C@H]([C@@H](C)c4c[nH]c5cccc(F)c45)NC(=O)[C@@H]4C[C@H](F)CN4C(=O)CNC(=O)[C@H](Cc4ccc(C(=O)O)cc4)NC(=O)[C@H](Cc4ccncc4)NC3=O)cc2)CC1 [Example 184] (cyclo([Phe(4-(4-Ac-piperazinyl))][4Pal][Phe(4-COOH)]G[Pro(cis-4-F)][Trp(βS-Me,4-F)][Aib]SW[αMeD][Ala(pyrimidin-5-yl)]Q[Dab]G[dPro(4R-Bzl(4-F))]))"
8,43,"C[C@@H](c1c[nH]c2cccc(F)c12)[C@@H]1NC(=O)[C@@H]2C[C@H](O)CN2C(=O)CNC(=O)[C@H](Cc2ccc(C(=O)O)cc2)NC(=O)[C@H](CC23CC(C2)C3)NC(=O)[C@H](Cc2ccc(-c3ncc(C(=O)O)cn3)cc2)NC(=O)[C@H]2C[C@@H](Cc3ccncc3)CN2C(=O)CNC(=O)[C@H](CCN)NC(=O)[C@H](CCC(N)=O)NC(=O)[C@H](Cc2cncnc2)NC(=O)C(C)(C)NC(=O)[C@H](Cc2c[nH]c3ccccc23)NC(=O)[C@H](CO)NC(=O)C(C)(C)NC1=O [Example 185] (cyclo([Phe(4-(5-CO2H-2-pyrimidyl))][Ala(1-bicyclo(1.1.1)pentyl)][Phe(4-COOH)]G[cisHyp][Trp(βS-Me,4-F)][Aib]SW[Aib][Ala(pyrimidin-5-yl)]Q[Dab]G[dPro(4R-(4-pyridylmethyl))]))"
9,15,"C[C@@H](c1c[nH]c2cccc(F)c12)[C@@H]1NC(=O)[C@@H]2C[C@H](F)CN2C(=O)CNC(=O)[C@H](Cc2ccc(C(=O)O)cc2)NC(=O)[C@H](Cc2ccncc2)NC(=O)[C@H](Cc2ccc(-c3ncc(C(=O)O)cn3)cc2)NC(=O)[C@H]2C[C@@H](Cc3ccncc3)CN2C(=O)CNC(=O)[C@H](CCN)NC(=O)[C@H](CCC(N)=O)NC(=O)[C@H](Cc2cncnc2)NC(=O)C(C)(C)NC(=O)[C@H](Cc2c[nH]c3ccccc23)NC(=O)[C@H](CO)NC(=O)C(C)(C)NC1=O [Example 186] (cyclo([Phe(4-(5-CO2H-2-pyrimidyl))][4Pal][Phe(4-COOH)]G[Pro(cis-4-F)][Trp(βS-Me,4-F)][Aib]SW[Aib][Ala(pyrimidin-5-yl)]Q[Dab]G[dPro(4R-(4-pyridylmethyl))]))"
10,15,"C[C@@H](c1c[nH]c2cccc(F)c12)[C@@H]1NC(=O)[C@@H]2C[C@H](F)CN2C(=O)CNC(=O)[C@H](Cc2ccc(C(=O)O)cc2)NC(=O)[C@H](Cc2ccncc2)NC(=O)[C@H](Cc2ccc(-c3ncc(C(=O)O)cn3)cc2)NC(=O)[C@H]2C[C@@H](Cc3ccncc3)CN2C(=O)CNC(=O)[C@H](CCN)NC(=O)[C@H](CCC(N)=O)NC(=O)[C@H](Cc2cncnc2)NC(=O)[C@](C)(CC(=O)O)NC(=O)[C@H](Cc2c[nH]c3ccccc23)NC(=O)[C@H](CO)NC(=O)C(C)(C)NC1=O [Example 187] (cyclo([Phe(4-(5-CO2H-2-pyrimidyl))][4Pal][Phe(4-COOH)]G[Pro(cis-4-F)][Trp(βS-Me,4-F)][Aib]SW[αMeD][Ala(pyrimidin-5-yl)]Q[Dab]G[dPro(4R-(4-pyridylmethyl))]))"
11,20,"C[C@@H](c1c[nH]c2cccc(F)c12)[C@@H]1NC(=O)[C@@H]2C[C@H](F)CN2C(=O)CNC(=O)[C@H](Cc2ccc(C(=O)O)cc2)NC(=O)[C@H](CC23CC(C2)C3)NC(=O)[C@H](Cc2ccc(-c3ncc(C(=O)O)cn3)cc2)NC(=O)[C@H]2C[C@@H](Cc3ccncc3)CN2C(=O)CNC(=O)[C@H](CCN)NC(=O)[C@H](CCC(N)=O)NC(=O)[C@H](Cc2cncnc2)NC(=O)[C@](C)(CC(=O)O)NC(=O)[C@H](Cc2c[nH]c3ccccc23)NC(=O)[C@H](CO)NC(=O)C(C)(C)NC1=O [Example 188] (cyclo([Phe(4-(5-CO2H-2-pyrimidyl))][Ala(1-bicyclo(1.1.1)pentyl)][Phe(4-COOH)]G[Pro(cis-4-F)][Trp(βS-Me,4-F)][Aib]SW[αMeD][Ala(pyrimidin-5-yl)]Q[Dab]G[dPro(4R-(4-pyridylmethyl))]))"
12,16,"C[C@@H](c1c[nH]c2cccc(F)c12)[C@@H]1NC(=O)[C@@H]2C[C@H](F)CN2C(=O)CNC(=O)[C@H](Cc2ccc(C(=O)O)cc2)NC(=O)[C@H](Cc2ccncc2)NC(=O)[C@H](Cc2ccc(-c3ccc(C(=O)O)cc3)cc2)NC(=O)[C@H]2C[C@@H](Cc3ccncc3)CN2C(=O)CNC(=O)[C@H](CO)NC(=O)[C@H](CCC(N)=O)NC(=O)[C@H](CC2CCOCC2)NC(=O)[C@](C)(CC(=O)O)NC(=O)[C@H](Cc2c[nH]c3ccccc23)NC(=O)[C@H](CO)NC(=O)C(C)(C)NC1=O [Example 189] (cyclo([Bip(4'-COOH)][4Pal][Phe(4-COOH)]G[Pro(cis-4-F)][Trp(βS-Me,4-F)][Aib]SW[αMeD][Ala(4-THP)]QSG[dPro(4R-(4-pyridylmethyl))]))"
